Results as given in the NIST ThermoML archive (doi:10.1021/je900689m).
± gives the expanded uncertainty stated by the source.

What was measured:
[1] = 101 kPa, Liquid; for viscosity: Capillary tube (Ostwald / Ubbelohde) method
[2] = xn = mol fraction of the nth substance listed; settings: 101 kPa, Liquid; for viscosity: Capillary tube (Ostwald / Ubbelohde) method

c1ccccc1 [benzene]
[1]
Settings	mass density [kg/m3]	speed of sound [m/s]	viscosity [mPa·s]
303.15 K	867.6 ± 0.7	1276 ± 6	0.569 ± 0.011
308.15 K	863.2 ± 0.7	1252 ± 6	0.534 ± 0.011
313.15 K	858.9 ± 0.7	1228 ± 6	0.497 ± 0.011

CC(C)Cc1ccccc1 [(2-methylpropyl)benzene] + CCOC=O
[2]
Settings	mass density, 303.15 K [kg/m3]	mass density, 308.15 K [kg/m3]	mass density, 313.15 K [kg/m3]	speed of sound, 303.15 K [m/s]	speed of sound, 308.15 K [m/s]	speed of sound, 313.15 K [m/s]	viscosity, 303.15 K [mPa·s]	viscosity, 308.15 K [mPa·s]	viscosity, 313.15 K [mPa·s]
x2 = 0	844.4 ± 0.7	841.1 ± 0.8	837.6 ± 0.8	1268 ± 6	1252 ± 6	1236 ± 6	0.905 ± 0.012	0.848 ± 0.012	0.784 ± 0.012
x2 = 0.1772	849.5 ± 0.7	845.8 ± 0.7	842.1 ± 0.8	1248 ± 6	1228 ± 6	1208 ± 5	0.788 ± 0.012	0.726 ± 0.011	0.666 ± 0.011
x2 = 0.3217	854.9 ± 0.7	851 ± 0.7	847 ± 0.7	1224 ± 6	1204 ± 5	1184 ± 5	0.699 ± 0.011	0.641 ± 0.011	0.591 ± 0.011
x2 = 0.4514	860.8 ± 0.7	856.8 ± 0.7	852.6 ± 0.7	1200 ± 5	1180 ± 5	1160 ± 5	0.625 ± 0.011	0.573 ± 0.011	0.529 ± 0.011
x2 = 0.5631	866.8 ± 0.7	862.7 ± 0.7	858.3 ± 0.7	1180 ± 5	1160 ± 5	1140 ± 5	0.569 ± 0.011	0.522 ± 0.011	0.48 ± 0.011
x2 = 0.6604	873.3 ± 0.7	868.8 ± 0.7	864.3 ± 0.7	1164 ± 5	1144 ± 5	1124 ± 5	0.52 ± 0.011	0.479 ± 0.011	0.442 ± 0.011
x2 = 0.7444	879.7 ± 0.7	875 ± 0.7	870.3 ± 0.7	1148 ± 5	1128 ± 5	1108 ± 5	0.481 ± 0.011	0.445 ± 0.011	0.413 ± 0.011
x2 = 0.8191	886.3 ± 0.7	881.5 ± 0.7	876.6 ± 0.7	1132 ± 5	1112 ± 5	1092 ± 5	0.45 ± 0.011	0.415 ± 0.011	0.384 ± 0.011
x2 = 0.8852	893.1 ± 0.7	888 ± 0.7	883 ± 0.7	1120 ± 5	1100 ± 5	1080 ± 5	0.418 ± 0.011	0.388 ± 0.011	0.362 ± 0.01
x2 = 0.9461	900.5 ± 0.7	895.3 ± 0.7	890 ± 0.7	1104 ± 5	1084 ± 5	1064 ± 5	0.394 ± 0.011	0.369 ± 0.01	0.347 ± 0.01

CC(C)Cc1ccccc1 [(2-methylpropyl)benzene]
[1]
Settings	mass density [kg/m3]	speed of sound [m/s]	viscosity [mPa·s]
303.15 K	844.4 ± 0.7	1268 ± 6	0.905 ± 0.012
308.15 K	841.1 ± 0.8	1252 ± 6	0.848 ± 0.012
313.15 K	837.6 ± 0.8	1236 ± 6	0.784 ± 0.012

CCOC=O [ethyl methanoate] + CC(C)Cc1ccccc1
[2], x1 = 1
Settings	mass density [kg/m3]	speed of sound [m/s]	viscosity [mPa·s]
303.15 K	907.8 ± 0.7	1092 ± 5	0.373 ± 0.011
308.15 K	902.6 ± 0.7	1072 ± 5	0.345 ± 0.01
313.15 K	897.1 ± 0.7	1052 ± 5	0.324 ± 0.01

CC(C)c1ccccc1 [isopropylbenzene]
[1]
Settings	mass density [kg/m3]	speed of sound [m/s]	viscosity [mPa·s]
303.15 K	852.7 ± 0.7	1280 ± 6	0.69 ± 0.011
308.15 K	849 ± 0.7	1264 ± 6	0.651 ± 0.011
313.15 K	845.4 ± 0.7	1248 ± 6	0.611 ± 0.011

CCOC=O [ethyl methanoate]
[1]
Settings	mass density [kg/m3]	speed of sound [m/s]	viscosity [mPa·s]
303.15 K	907.8 ± 0.7	1092 ± 5	0.373 ± 0.011
308.15 K	902.6 ± 0.7	1072 ± 5	0.345 ± 0.01
313.15 K	897.1 ± 0.7	1052 ± 5	0.324 ± 0.01

CCCCc1ccccc1 [butylbenzene]
[1]
Settings	mass density [kg/m3]	speed of sound [m/s]	viscosity [mPa·s]
303.15 K	851.3 ± 0.7	1308 ± 6	0.901 ± 0.012
308.15 K	848 ± 0.7	1292 ± 6	0.844 ± 0.012
313.15 K	844.6 ± 0.7	1276 ± 6	0.787 ± 0.012
